Tests used:
[1] = biological target: T1, RNR (RNR1:RNR2 1:1) (Homo sapiens, UniProt P23921+P31350); experiment: RNR enzyme activity, rapid-fire mass spectrometry (RF/MS) assay; format: biochemical; details: RNR 50 nM, 1:1 (RNR1:RNR2); CDP 5 μM; ATP 1 mM; 37° C., 45 min; compounds screened up to 50 μM
T1 sequence (P23921 1-792): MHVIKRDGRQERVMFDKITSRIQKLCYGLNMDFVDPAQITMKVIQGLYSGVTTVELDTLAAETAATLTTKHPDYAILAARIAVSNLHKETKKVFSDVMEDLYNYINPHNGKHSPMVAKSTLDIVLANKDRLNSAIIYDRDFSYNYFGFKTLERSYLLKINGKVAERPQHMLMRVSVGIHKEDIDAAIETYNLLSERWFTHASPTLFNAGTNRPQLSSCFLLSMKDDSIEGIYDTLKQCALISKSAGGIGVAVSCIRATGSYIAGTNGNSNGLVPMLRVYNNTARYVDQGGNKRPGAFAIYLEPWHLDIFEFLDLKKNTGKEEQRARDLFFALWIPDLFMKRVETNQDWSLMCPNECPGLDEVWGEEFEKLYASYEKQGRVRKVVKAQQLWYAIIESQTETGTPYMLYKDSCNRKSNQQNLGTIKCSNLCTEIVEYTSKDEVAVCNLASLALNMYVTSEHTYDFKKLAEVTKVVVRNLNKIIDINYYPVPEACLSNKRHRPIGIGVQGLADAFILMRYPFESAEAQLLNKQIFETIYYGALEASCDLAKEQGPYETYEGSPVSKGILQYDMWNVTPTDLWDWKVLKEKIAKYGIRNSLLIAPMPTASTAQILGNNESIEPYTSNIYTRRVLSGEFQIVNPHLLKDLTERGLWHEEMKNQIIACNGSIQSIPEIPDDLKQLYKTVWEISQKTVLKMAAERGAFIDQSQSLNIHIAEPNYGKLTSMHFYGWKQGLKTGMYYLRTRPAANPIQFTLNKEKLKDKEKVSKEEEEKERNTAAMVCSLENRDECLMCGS
T1 sequence (P31350 1-389): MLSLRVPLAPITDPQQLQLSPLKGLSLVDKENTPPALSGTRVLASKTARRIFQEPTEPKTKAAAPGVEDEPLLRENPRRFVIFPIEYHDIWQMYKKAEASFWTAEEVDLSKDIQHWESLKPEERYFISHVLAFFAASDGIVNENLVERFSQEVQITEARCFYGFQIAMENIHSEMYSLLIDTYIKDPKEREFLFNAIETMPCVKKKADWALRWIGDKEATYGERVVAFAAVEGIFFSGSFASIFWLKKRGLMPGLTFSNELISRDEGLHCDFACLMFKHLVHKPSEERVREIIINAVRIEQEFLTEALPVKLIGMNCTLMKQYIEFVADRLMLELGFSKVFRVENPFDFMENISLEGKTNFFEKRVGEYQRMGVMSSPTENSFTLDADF
Description: A rapid-fire mass spectrometry (RF/MS) assay was used to assess RNR enzyme activity using a 384 well plate and a robotic platform.
The plate layout included two validated reference compounds (Triapine (3-AP) and Hydroxyurea (HU)): • A dose response in duplicate, top concentration: 5 μM (3-AP) and 250 μM (HU), semi-log • dilutions. • Spike wells in triplicate randomly spotted at four concentrations: • 250 μM, 100 μM, 30 μM and 2 μM for HU • 5 μM, 2 μM, 0.6 μM and 0.04 μM for 3-AP
First, the multidrop pipes were saturated for 30 minutes with enzymatic solution. Then 30 μL of Stop solution was distributed in column 24. Next, 15 μL of enzyme was distributed in column 1 to 24. Next, a pre-incubation step of 15 minutes at room temperature occurred, followed by distribution of 15 μL of substrate solution (column 1 to 24). Next, the plate was incubated for 45 minutes at 37° C. 30 μL of Stop solution was distributed to columns 1 to 23.
The final parameters for the enzyme reactions were: • Incubation: 37° C., 45 min • [CDP]: 5 μM: [ATP]: 1 mM; [NADPH]: No • [RNR]final: 50 nM with 1:1 (RNR1:RNR2) ratio • Final volume: 30 μL • Stop solution: 6% HCOOH containing 2 μM of 15

[2] = tested on: pCHK1 (S345) in Colo320 DM cells; experiment: Alphalisa assay, detection of pCHK1 (S345) in Colo320 DM cells; format: cell-based; details: Homo sapiens, COLO 320DM, compound incubation overnight (approximately 16 hours)
Description: Colo320 DM cells (ATCC #CCL-220, derived from human colorectal adenocarcinoma, Dukes' type C) were seeded on a 96-well, cell culture treated assay plate at a density of 50,000 cells/well in 200 μL of RPMI-1640 media supplemented with 10% Fetal Bovine Serum and incubated at 37° C. overnight. The following day, test compound dilutions were added directly to the plated cells by a Tecan digital dispenser to a final DMSO concentration of <0.5%, and incubated at 37° C. overnight (approximately 16 hours). The following day all cull culture media was removed from the cells. 75 μL of 1× AlphaLisa lysis buffer was added to each well and plates were agitated on a shaker for 30 minutes at room temperature. The lysis of cells and detection of pCHK1 (S345) were performed with regents contained within the AlphaLisa Sure Fire assay kit (Perkin Elmer #ALSU-PCHK1-A) according to the manufacturer's instructions. 10 μL of each lysate was then transferred to a white, 384-well assay plate (Perkin Elmer #6008280), 5 μL of Acceptor mix was then added to each well of lysate in the white, 384-well assay plate and incubated in the dark at room temperature for 60 minutes. 5 μL of Donor mix was then added to each well of the white, 384-well assay plate in subdued light and incubated at room temperature for 60 minutes. Plates were read on an Alpha Technology-compatible plate reader using standard AlphaLisa settings.

Row | IC50 [1] | IC50 [2] | Compound
1 | 100 to 500 nM | 5000 to 10000 nM | Cn1ccc2cc(S(=O)(=O)N3CCN(c4ccc(O)cc4)CC3)ccc21 [compound 4, 4-(4-((1-methyl-1H-indol-5-yl)sulfonyl)piperazin-1-yl)phenol]
2 | 100 to 500 nM | 1000 to 5000 nM | C[C@@H]1[C@H](Nc2ccc(O)cc2)CN1S(=O)(=O)c1ccc2cc[nH]c2c1 (racemic) [compound 36, rac-4-(((2R,3R)-1-((1H-indol-6-yl)sulfonyl)-2-methylazetidin-3-yl)amino)phenol]
3 | ≤ 50 nM | 1000 to 5000 nM | CN(c1ccc(O)cc1)C1CCN(S(=O)(=O)c2cccc3[nH]ccc23)C1 (racemic) [compound 31, rac-(R)-4-((1-((1H-indol-4-yl)sulfonyl)pyrrolidin-3-yl)(methyl)amino)phenol]
4 | 50 to 100 nM | 5000 to 10000 nM | O=S(=O)(c1ccc2cc[nH]c2c1)N1CC(O)C(Nc2ccc(O)cc2)C1 (stereo not drawn) [compound 44, 1-((1H-indol-6-yl)sulfonyl)-4-((4-hydroxyphenyl)amino) pyrrolidin-3-ol]
5 | ≤ 50 nM | 1000 to 5000 nM | CN(c1ccc(O)cc1)C1CN(S(=O)(=O)c2cc3[nH]cc(Cl)c3cc2F)C1 [compound 22, 4-((1-((3-chloro-5-fluoro-1H-indol-6-yl)sulfonyl)azetidin-3-yl)(methyl)amino)phenol]
6 | ≤ 50 nM | 1000 to 5000 nM | CN(c1ccc(O)cc1)C1CN(S(=O)(=O)c2ccc3ccn(C)c3c2)C1 [compound 23, 4-(methyl(1-((1-methyl-1H-indol-6-yl)sulfonyl)azetidin-3-yl)amino)phenol]
7 | 100 to 500 nM | 5000 to 10000 nM | O=S(=O)(c1ccc2cc[nH]c2c1)N1CC2CN(c3ccc(O)cc3)CCC21 (stereo not drawn) [compound 51, 4-(7-((1H-indol-6-yl)sulfonyl)-3,7-diazabicyclo[4.2.0]octan-3-yl)phenol]
8 | ≤ 50 nM | 5000 to 10000 nM | Cn1ccc2cccc(S(=O)(=O)N3CCN(c4ccc(O)cc4)CC3)c21 [compound 1, 4-(4-((1-methyl-1H-indol-7-yl)sulfonyl)piperazin-1-yl)phenol]
9 | ≤ 50 nM | 1000 to 5000 nM | C[C@@H]1C[C@H](N(C)c2ccc(O)cc2)CN1S(=O)(=O)c1ccc2cc[nH]c2c1 (racemic) [compound 37, rac-4-(((3R,5S)-1-((1H-indol-6-yl)sulfonyl)-5-methylpyrrolidin-3-yl)(methyl)amino)phenol]
10 | ≤ 50 nM | ≤ 1000 nM | CN(c1ccc(O)cc1)C1CCN(S(=O)(=O)c2ccc3[nH]ccc3c2)C1 (racemic) [compound 30, rac-(R)-4-((1-((1H-indol-5-yl)sulfonyl)pyrrolidin-3-yl)(methyl)amino)phenol]
11 | 50 to 100 nM | 1000 to 5000 nM | O=S(=O)(NC1CN(c2ccc(O)cc2)C1)c1ccc2cc[nH]c2c1 [compound 10, N-(1-(4-hydroxyphenyl)azetidin-3-yl)-1H-indole-6-sulfonamide]
12 | ≤ 50 nM | 5000 to 10000 nM | CN(C1CCN(c2ccc(O)cc2)CC1)S(=O)(=O)c1ccc2cc[nH]c2c1 [compound 12, N-(1-(4-hydroxyphenyl)piperidin-4-yl)-N-methyl-1H-indole-6-sulfonamide]
13 | 100 to 500 nM | 10000 to 50000 nM | O=S(=O)(c1ccc2cc[nH]c2c1)N1CC2CC1CN2c1ccc(O)cc1 (stereo not drawn) [compound 35, 4-(5-((1H-indol-6-yl)sulfonyl)-2,5-diazabicyclo[2.2.1]heptan-2-yl)phenol]
14 | 100 to 500 nM | 10000 to 50000 nM | Cn1ccc2cc(S(=O)(=O)N3CCN(c4ccc(O)cc4)CC3)cnc21 [compound 6, 4-(4-((1-methyl-1H-pyrrolo[2,3-b]pyridin-5-yl)sulfonyl)piperazin-1-yl)phenol]
15 | ≤ 50 nM | 1000 to 5000 nM | O=S(=O)(c1ccc2cc[nH]c2c1)N1CC(Nc2ccc(O)cc2)C1 [compound 11, 4-((1-((1H-indol-6-yl)sulfonyl)azetidin-3-yl)amino)phenol]
16 | 50 to 100 nM | 1000 to 5000 nM | O=S(=O)(c1ccc2cc[nH]c2c1)N1CCN(c2ccc(O)cc2)CC12CCC2 [compound 46, 4-(5-((1H-indol-6-yl)sulfonyl)-5,8-diazaspiro[3.5]nonan-8-yl)phenol]
17 | ≤ 50 nM | 1000 to 5000 nM | O=S(=O)(c1ccc2cc[nH]c2c1)N1CCC(Oc2ccc(O)cc2)CC1 [compound 43, 4-((1-((1H-indol-6-yl)sulfonyl)piperidin-4-yl)oxy)phenol]
18 | ≤ 50 nM | 1000 to 5000 nM | CN(c1ccc(O)cc1)C1CN(S(=O)(=O)c2ccc3cc[nH]c3c2)C2(CC2)C1 (racemic) [compound 38, rac-(R)-4-((4-((1H-indol-6-yl)sulfonyl)-4-azaspiro[2.4]heptan-6-yl)(methyl)amino)phenol]
19 | 100 to 500 nM | 10000 to 50000 nM | Cn1ccc2ccc(S(=O)(=O)N3CCC4(CCN(c5ccc(O)cc5)CC4)C3)cc21 [compound 41, 4-(2-((1-methyl-1H-indol-6-yl)sulfonyl)-2,8-diazaspiro[4.5]decan-8-yl)phenol]
20 | 100 to 500 nM | 10000 to 50000 nM | CN(c1ccc(O)cc1)C1CN(S(=O)(=O)c2ccc3cn[nH]c3c2)C1 [compound 18, 4-((1-((1H-indazol-6-yl)sulfonyl)azetidin-3-yl)(methyl)amino)phenol]
21 | ≤ 50 nM | ≤ 1000 nM | CCN(c1ccc(O)cc1)C1CN(S(=O)(=O)c2ccc3cc[nH]c3c2)C1 [compound 25, 4-((1-((1H-indol-6-yl)sulfonyl)azetidin-3-yl)(ethyl)amino)phenol]
22 | ≤ 50 nM | ≤ 1000 nM | O=S(=O)(c1ccc2cc[nH]c2c1)N1CCC(Oc2ccc(O)cc2)C1 (stereo not drawn) [compound 40, 4-((1-((1H-indol-6-yl)sulfonyl)pyrrolidin-3-yl)oxy)phenol]

Row | Compound | IC50 [1] | IC50 [2]
23 | O=S(=O)(c1ccc2cc[nH]c2c1)N1[C@@H]2CCC[C@H]1CN(c1ccc(O)cc1)C2 [compound 34, 4-((1R,5S)-9-((1H-indol-6-yl)sulfonyl)-3,9-diazabicyclo[3.3.1]nonan-3-yl)phenol] | ≤ 50 nM | 1000 to 5000 nM
24 | O=S(=O)(c1ccc2cc[nH]c2c1)N1C[C@H]2COC[C@@H](C1)N2c1ccc(O)cc1 [compound 17, 4-((1R,5S)-7-((1H-indol-6-yl)sulfonyl)-3-oxa-7,9-diazabicyclo[3.3.1]nonan-9-yl)phenol] | ≤ 50 nM | ≤ 1000 nM

— patent publication US20240285614A1, “PHENOL RIBONUCLEOTIDE REDUCTASE (RNR) INHIBITORS AND USES THEREOF” (Boundless Bio, Inc., priority 2023, published 2024)
